Experiment: logP determination by HPLC (reversed-phase C18), EEC Directive 79/831 Annex V.A8
Details: Table 3, compounds of formula (IV); labelled a): acidic range, 0.1% aqueous phosphoric acid, acetonitrile, linear gradient 10% to 90% acetonitrile; 43° C.

| SMILES | logP |
| --- | --- |
| COC(=O)c1ccc(Cl)c(Cn2nc(SC)n(C)c2=O)c1Cl [IV-3] | m.p.: 229 °C logP = 2.27^a) |
| CCOc1nn(Cc2c(Cl)ccc(C(=O)OC)c2Cl)c(=O)n1C [IV-4] | m.p.: 120 °C logP = 2.38^a) |
| COC(=O)c1ccc(Cl)c(Cn2nc(C3CC3)n(C3CC3)c2=O)c1Cl [IV-5] | m.p.: 127 °C logP = 2.55^a) |
| COC(=O)c1ccc(Cl)c(Cn2nc(OC)n(C)c2=O)c1Cl [IV-6] | m.p.: 121 °C logP = 2.04^a) |
| COC(=O)c1ccc(Cl)c(Cn2nc(OC(C)C)n(C)c2=O)c1Cl [IV-7] | m.p.: 68 °C logP = 2.73^a) |
| COC(=O)c1ccc(Cl)c(Cn2nc(OCC(F)(F)F)n(C)c2=O)c1Cl [IV-8] | m.p.: 129 °C logP = 2.72^a) |
| COC(=O)c1ccc(Cl)c(Cn2nc(Br)n(C)c2=O)c1Cl [IV-9] | m.p.: 164 °C logP = 2.18^a) |
| COC(=O)c1ccc(Cl)c(Cn2ncn(C)c2=O)c1Cl [IV-10] | m.p.: 158 °C logP = 1.55^a) |
| COC(=O)c1ccc(Cl)c(Cn2nc(C3CC3)n(C)c2=O)c1Cl [IV-11] | m.p.: 106 °C logP = 2.16^a) |
| COC(=O)c1ccc(Cl)c(Cn2nc(N(C)C)n(C)c2=O)c1Cl [IV-12] | m.p.: 126 °C logP = 2.11^a) |
| COC(=O)c1ccc(Cl)c(Cn2nc(C)n(C)c2=O)c1Cl [IV-13] | m.p.: 146 °C logP = 1.65^a) |
| COC(=O)c1ccc(Cl)c(Cn2nc3n(c2=O)CCCC3)c1Cl [IV-14] | m.p.: 178 °C logP = 1.86^a) |
| COC(=O)c1ccc(Cl)c(Cn2nc(OC)n(C3CC3)c2=O)c1Cl [IV-15] | m.p.: 97 °C logP = 2.36^a) |
| CCOc1nn(Cc2c(Cl)ccc(C(=O)OC)c2Cl)c(=O)n1C1CC1 [IV-16] | m.p.: 99 °C logP = 2.73^a) |
| COC(=O)c1ccc(Cl)c(Cn2nc(OC(C)C)n(C3CC3)c2=O)c1Cl [IV-17] | m.p.: 56 °C logP = 3.08^a) |
| COC(=O)c1ccc(Cl)c(Cn2nc(OCC(F)(F)F)n(C3CC3)c2=O)c1Cl [IV-18] | m.p.: 102 °C logP = 3.05^a) |
| COC(=O)c1ccc(Cl)c(Cn2nc(SC)n(C3CC3)c2=O)c1Cl [IV-19] | m.p.: 131 °C logP = 2.70^a) |
| COC(=O)c1ccc(Cl)c(Cn2nc(C)n(C3CC3)c2=O)c1Cl [IV-20] | m.p.: 135 °C logP = 1.97^a) |
| COC(=O)c1ccc(Cl)c(Cn2nc(N(C)C)n(C3CC3)c2=O)c1Cl [IV-21] | m.p.: 143 °C logP = 2.42^a) |
| CCOn1c(CC)nn(Cc2c(Cl)ccc(C(=O)OC)c2Cl)c1=O [IV-22] | m.p.: 85 °C logP = 2.58^a) |
| COC(=O)c1ccc(Cl)c(CN2CCN(C)C2=O)c1Cl [IV-23] | logP = 1.98^a) |
| COC(=O)c1ccc(Cl)c(CN2CCCN(C)C2=O)c1Cl [IV-24] | logP = 2.07^a) |
| COC(=O)c1ccc(Cl)c(CN2C(=O)c3ccccc3S2(=O)=O)c1Cl [IV-25] | m.p.: 157 °C logP = 2.94^a) |
| CCOC(=O)c1ccc(S(C)(=O)=O)cc1CN1C(=O)CCC1=O [IV-33] | logP = 1.53^a) |
| CCOC(=O)c1ccc(Br)cc1Cn1nc(CC)n(OCC)c1=O [IV-34] | logP = 3.24^a) |

| SMILES | logP |
| --- | --- |
| CCOC(=O)c1ccc(Br)cc1Cn1nc(C(F)(F)F)n(C)c1=O [IV-35] | logP = 3.40^a) |
| CCOC(=O)c1ccc(F)cc1Cn1nc(SC)n(C)c1=O [IV-37] | logP = 2.45^a) |
| CCOC(=O)c1ccc(Cl)cc1Cn1nc(OCC)n(C2CC2)c1=O [IV-42] | logP = 3.23^a) |
| CCOC(=O)c1ccc(Cl)cc1Cn1nc(C(F)(F)F)n(C)c1=O [IV-43] | logP = 3.31^a) |
| CCOC(=O)c1ccc(Cl)cc1Cn1nc(CC)n(OCC)c1=O [IV-44] | logP = 3.14^a) |
| CCOC(=O)c1ccc([N+](=O)[O-])cc1Cn1nc(OCC)n(C2CC2)c1=O [IV-45] | logP = 2.42^a) |
| CCOC(=O)c1ccc([N+](=O)[O-])cc1Cn1nc(SC)n(C)c1=O [IV-46] | logP = 2.82^a) |
| CCOC(=O)c1ccc(C(F)(F)F)cc1Cn1nc(OCC)n(C2CC2)c1=O [IV-47] | logP = 3.48^a) |
| CCOC(=O)c1ccc(C(F)(F)F)cc1Cn1nc(CC)n(OCC)c1=O [IV-48] | logP = 3.38^a) |
| CCOC(=O)c1ccc(C(F)(F)F)cc1Cn1nc(SC)n(C)c1=O [IV-49] | logP = 3.02^a) |
| CCCOC(=O)c1ccc(C(F)(F)F)cc1Cn1nc(OCC)n(C2CC2)c1=O [IV-50] | logP = 3.91^a) |
| CCOC(=O)c1ccc(Br)cc1Cn1nc(OCC)n(C)c1=O [IV-58] | logP = 2.95^a) |
| CCOC(=O)c1ccc(Br)cc1CN1C(=O)CCC1=O [IV-60] | logP = 2.44^a) |
| CCOC(=O)c1ccc(Br)cc1Cn1nc(OC(C)C)n(C)c1=O [IV-65] | logP = 3.34^a) |
| CCCOc1nn(Cc2cc(Br)ccc2C(=O)OCC)c(=O)n1C [IV-66] | logP = 3.38^a) |
| CCOC(=O)c1ccc(Br)cc1Cn1nc(OCC(F)(F)F)n(C)c1=O [IV-67] | logP = 3.31^a) |
| CCOC(=O)c1ccc(Br)cc1Cn1nc2n(c1=O)CCC2 [IV-68] | logP = 2.16^a) |
| CCOC(=O)c1ccc(Br)cc1Cn1nc2n(c1=O)CCCC2 [IV-69] | logP = 2.41^a) |
| CCOC(=O)c1ccc(C(F)(F)F)cc1Cn1nc(OC(C)C)n(C)c1=O [IV-70] | logP = 3.51^a) |
| CCCOc1nn(Cc2cc(C(F)(F)F)ccc2C(=O)OCC)c(=O)n1C [IV-71] | logP = 3.54^a) |
| CCOC(=O)c1ccc(Br)cc1CN1CCOC1=O [IV-72] | logP = 2.36^a) |
| CCOC(=O)c1ccc(Br)cc1Cn1nc(C)oc1=O [IV-73] | logP = 2.88^a) |
| CCOC(=O)c1ccc(C(F)(F)F)cc1Cn1cnn(C)c1=O [IV-74] | logP = 2.68^a) |
| CCOC(=O)c1ccc(Br)cc1Cn1nc(Br)n(C)c1=O [IV-75] | logP = 2.80^a) |
| CCOC(=O)c1ccc(C(F)(F)F)cc1Cn1nc(COC)n(C2CC2)c1=O [IV-77] | logP = 2.88^a) |

| SMILES | logP |
| --- | --- |
| CCOC(=O)c1ccc(C(F)(F)F)cc1Cn1nc(COC)n(C)c1=O [IV-78] | logP = 2.60^a) |
| CCOC(=O)c1ccc(C(F)(F)F)cc1Cn1nc(Br)n(C2CC2)c1=O [IV-79] | logP = 3.35^a) |
| CCOC(=O)c1ccc(Br)cc1Cn1nc(SC)n(C)c1=O [IV-80] | logP = 2.86^a) |
| CCOC(=O)c1ccc(Cl)cc1Cn1nc(SC)n(C)c1=O [IV-81] | logP = 2.83^a) |
| CCOC(=O)c1ccc(Br)cc1Cn1nc(N(C)C)n(C)c1=O [IV-82] | logP = 2.60^a) |
| CCOC(=O)c1ccc(C(F)(F)F)cc1Cn1nc(N(C)C)n(C)c1=O [IV-85] | logP = 2.79^a) |
| CCOC(=O)c1ccc(C(F)(F)F)cc1CN1C(=O)c2ccccc2S1(=O)=O [IV-86] | logP = 3.67^a) |
| CCOC(=O)c1ccc(C(F)(F)F)cc1CN1C(=O)c2ccccc2C1=O [IV-87] | logP = 3.80^a) |
| CCOC(=O)c1ccc(S(C)(=O)=O)cc1Cn1nc(SC)n(C)c1=O [IV-89] | logP = 1.82^a) |
| CCOC(=O)c1ccc(C(F)(F)F)cc1Cn1cc(C(F)(F)F)c(=O)[nH]c1=O [IV-90] | logP = 2.93^a) |
| CCOC(=O)c1ccc(C(F)(F)F)cc1Cn1nc(C)oc1=O [IV-92] | logP = 3.04^a) |
| CCOC(=O)c1ccc(C(F)(F)F)cc1Cn1nc(OCC(F)(F)F)n(C)c1=O [IV-93] | logP = 3.45^a) |
| CCOC(=O)c1ccc(F)cc1Cn1nc(N(C)C)n(C)c1=O [IV-94] | logP = 2.21^a) |
| CCCOc1nn(Cc2cc(F)ccc2C(=O)OCC)c(=O)n1C [IV-95] | logP = 2.96^a) |
| CCOC(=O)c1ccc(F)cc1Cn1nc(COC)n(C)c1=O [IV-96] | logP = 2.05^a) |
| CCOC(=O)c1ccc(F)cc1Cn1nc(OC)n(C2CC2)c1=O [IV-97] | logP = 2.50^a) |
| CCOC(=O)c1ccc(F)cc1Cn1nc(OCC)n(C2CC2)c1=O [IV-98] | logP = 2.89^a) |
| CCOC(=O)c1ccc(C(F)(F)F)cc1CN1N=C(C)C(C)(C)C1=O [IV-99] | logP = 2.91^a) |
| CCOC(=O)c1ccc(C(F)(F)F)cc1Cn1c(=O)n(C)c(=O)n1C [IV-113] | logP = 2.58^a) |
| COC(=O)c1ccc(S(C)(=O)=O)cc1Cn1nc(SC)n(C)c1=O [IV-114] | logP = 1.53^a) |
| CCOc1nn(Cc2cc(S(C)(=O)=O)ccc2C(=O)OC)c(=O)n1C [IV-115] | logP = 1.59^a) |
| CCOc1nn(Cc2cc(I)ccc2C(=O)OC)c(=O)n1C [IV-116] | logP = 2.68^a) |
| CCOc1nn(Cc2cc(C(F)(F)F)ccc2C(=O)OC)c(=O)n1C [IV-117] | logP = 2.74^a) |
| COC(=O)c1ccc(C(F)(F)F)cc1Cn1nc(SC)n(C)c1=O [IV-118] | logP = 2.65^a) |
| CCOC(=O)c1ccc(C(F)(F)F)cc1Cn1nc(Br)n(C)c1=O [IV-119] | logP = 2.96^a) |

Same assay, conditions: reversed-phase C18 HPLC column, pH 2

| chromatographic logP | SMILES |
| --- | --- |
| 3.13 | Cn1c(C(F)(F)F)nn(-c2ccc(C(=O)C3C(=O)CCCC3=O)c(Cl)c2)c1=O [compound 2, 2-[4-(2,6-dioxocyclohexylcarbonyl)-3-chloro-phenyl]4-methyl-5-trifluoromethyl-2,4-dihydro-3H-1,2,4-triazol-3′-one] |

Experiment: not given
Details: not given

| melting point | SMILES |
| --- | --- |
| 207 °C | Cn1c(C(F)(F)F)nn(Cc2c(Cl)ccc(C(=O)O)c2Cl)c1=O [III-3, 4-methyl-5-trifluoromethyl-2-(2,6-dichloro-3-carboxy-benzyl)-2,4-dihydro-3H-1,2,4-triazol-3-one] |
| 109 °C | COC(=O)c1ccc(Cl)c(Cn2nc(C(F)(F)F)n(C)c2=O)c1Cl [IV-2, 4-methyl-5-trifluoromethyl-2-(2,6-dichloro-3-methoxycarbonyl-benzyl)-2,4-dihydro-3H-1.2.4-triazol-3-one] |
| 182 °C | Cn1c(C(F)(F)F)nn(-c2ccc(C(=O)C3C(=O)CCCC3=O)c(Cl)c2)c1=O [compound 2, 2-[4-(2,6-dioxocyclohexylcarbonyl)-3-chloro-phenyl]4-methyl-5-trifluoromethyl-2,4-dihydro-3H-1,2,4-triazol-3′-one] |
